Laboratory results published in PMC3716717, “The molecular basis for recognition of bacterial ligands at equine TLR2, TLR1 and TLR6” (Veterinary Research, 2013).
Peptide text beside a SMILES is read from it. * marks the point of attachment. X1 = CCCCCCCCCCCCCCCC(=O)OCC(C*)OC(=O)CCCCCCCCCCCCCCC; Palmitoyl = CCCCCCCCCCCCCCCC(=O)*

Assays:
Type in all cases: cell-based
human TLR2/1 = target: T1, human TLR2/1 (Homo sapiens, UniProt O60603+Q15399); assay: NF-κB dual luciferase reporter assay in SW620 cells transfected with human TLR2+TLR1+CD14; details: human TLR2+TLR1+CD14, 6 h stimulation, normalised curves
T1 construct: FLAG (from vector pFLAG-CMV); expressed in transfected cells; host or cells: SW620 (human)
T1 sequence (O60603 21-784): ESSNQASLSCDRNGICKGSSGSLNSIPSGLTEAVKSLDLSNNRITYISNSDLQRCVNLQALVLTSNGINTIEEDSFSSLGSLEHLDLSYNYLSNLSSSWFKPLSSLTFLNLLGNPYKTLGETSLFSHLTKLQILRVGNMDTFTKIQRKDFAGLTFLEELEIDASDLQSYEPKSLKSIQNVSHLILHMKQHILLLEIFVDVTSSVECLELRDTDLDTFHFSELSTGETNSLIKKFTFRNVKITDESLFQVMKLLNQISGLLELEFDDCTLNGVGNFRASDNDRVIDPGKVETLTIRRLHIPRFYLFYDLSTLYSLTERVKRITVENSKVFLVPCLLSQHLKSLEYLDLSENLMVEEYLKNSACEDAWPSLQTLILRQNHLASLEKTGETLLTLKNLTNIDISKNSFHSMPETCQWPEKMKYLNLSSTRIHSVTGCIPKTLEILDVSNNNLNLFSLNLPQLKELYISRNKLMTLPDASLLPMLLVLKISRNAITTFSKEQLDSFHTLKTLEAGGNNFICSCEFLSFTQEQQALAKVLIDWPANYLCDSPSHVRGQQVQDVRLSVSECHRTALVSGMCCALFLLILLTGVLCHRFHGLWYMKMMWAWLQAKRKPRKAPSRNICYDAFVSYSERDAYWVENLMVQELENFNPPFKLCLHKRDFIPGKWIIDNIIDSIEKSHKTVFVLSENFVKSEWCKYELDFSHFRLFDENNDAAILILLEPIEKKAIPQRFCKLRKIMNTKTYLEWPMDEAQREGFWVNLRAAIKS
T1 sequence (Q15399 25-786): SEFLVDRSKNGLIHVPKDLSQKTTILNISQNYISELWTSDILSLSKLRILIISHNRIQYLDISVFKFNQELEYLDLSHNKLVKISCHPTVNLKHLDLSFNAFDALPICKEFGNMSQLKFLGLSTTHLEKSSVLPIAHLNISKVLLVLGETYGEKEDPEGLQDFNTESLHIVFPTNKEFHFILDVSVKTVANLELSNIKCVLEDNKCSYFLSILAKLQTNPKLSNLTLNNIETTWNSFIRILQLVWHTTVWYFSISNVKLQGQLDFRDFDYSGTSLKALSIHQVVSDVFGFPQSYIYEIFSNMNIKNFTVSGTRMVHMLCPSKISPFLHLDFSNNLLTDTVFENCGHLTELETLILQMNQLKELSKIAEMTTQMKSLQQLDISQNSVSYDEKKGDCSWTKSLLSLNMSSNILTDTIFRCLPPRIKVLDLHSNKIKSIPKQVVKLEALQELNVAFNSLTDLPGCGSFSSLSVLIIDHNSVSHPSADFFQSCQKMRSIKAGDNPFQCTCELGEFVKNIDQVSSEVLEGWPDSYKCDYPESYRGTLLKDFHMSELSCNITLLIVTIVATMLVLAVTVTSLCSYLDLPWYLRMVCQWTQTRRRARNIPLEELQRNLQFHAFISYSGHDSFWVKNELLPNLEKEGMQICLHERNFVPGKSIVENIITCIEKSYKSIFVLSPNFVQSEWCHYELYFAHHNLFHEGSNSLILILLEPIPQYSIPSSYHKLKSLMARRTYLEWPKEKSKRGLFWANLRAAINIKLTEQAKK
Protocol: (§1) SW620 cells (a gift from Richard Tapping, USA) were utilised for TLR2/1 and TLR2/6 transient transfection experiments, as, unlike HEK293 cells, they are 1) deficient in significant expression of all three receptors, and 2) poorly responsive to Pam2CSK4 and Pam3CSK4 without exogenously added TLRs (Additional file 1). […] SW620 cells were seeded at 3.75 × 10^4 cells per well of a 48 well plate and transiently transfected 24 hours later using Fugene 6 (Promega) at a ratio of 1 μg DNA: 4 μL Fugene 6. For transfection, expression vectors containing cDNA encoding human (in pFLAG-CMV) or equine (in pcDNA3) TLR2, -1 and -6, and CD14 (in pcDNA3), were mixed as appropriate. TLR cDNA-containing vectors were used at 2.5 ng/well; CD14 cDNA-containing vectors were used at 1.25 ng/well. […] Cells were stimulated for six hours, lysed using diluted passive lysis buffer (PLB; Promega), and NF-κB activation measured by the dual luciferase reporter assay (Promega). […]
(§2) SW620 cells were transiently transfected with reporter constructs and one of four receptor combinations: human TLR2+TLR1+CD14, human TLR2+TLR6+CD14, equine TLR2+TLR1+CD14 or equine TLR2+TLR6+CD14, and stimulated with increasing doses of ligand. EC50 and maximum stimulation values were determined at each heterodimer as measures of ligand potency and efficacy respectively.

equine TLR2/1 = assay: NF-κB dual luciferase reporter assay in SW620 cells transfected with equine TLR2+TLR1+CD14; details: for EC50: SW620 cells, equine TLR2+TLR1+CD14, 6 h stimulation, NF-κB luciferase, normalised curves
Protocol: as §1, with “ng/well. TLR constructs were replaced with empty vector (pcDNA3), as appropriate, to balance total added DNA amounts. Reporter constructs pNF-κB-luc (Clontech; 25 ng/well) and ph-RG-TK (Promega; 12.5 ng/well), encoding firefly luciferase under an NF-κB promoter and constitutively expressed Renilla luciferase respectively, were then added to all receptor mixtures, together with 10× Tris-EDTA (TE). Following mixing of DNA, and per 4 wells, 0.7 μL Fugene 6 was diluted to 10 μL in serum- and antibiotic-free RPMI and incubated for 5 min. DNA mixtures were then added to the Fugene 6/RPMI mixtures and incubated for 30 min at room temperature. Following incubation, transfection mixtures were diluted to 1 mL per 4 wells in complete SW620 medium.” for “ng/well.”
as §2

human TLR2 [1] = target: T2, human TLR2 (Homo sapiens, UniProt O60603); assay: NF-κB reporter assay in SW620 cells transfected with human TLR2 only (+CD14); parameters: FLAG (from vector pFLAG-CMV); expressed in transfected cells; host or cells: SW620 (human); details: 20 ng/mL ligand
T2 sequence (O60603 21-784): as the sequence (O60603 21-784) above
Protocol: SW620 cells (a gift from Richard Tapping, USA) were utilised for TLR2/1 and TLR2/6 transient transfection experiments, as, unlike HEK293 cells, they are 1) deficient in significant expression of all three receptors, and 2) poorly responsive to Pam2CSK4 and Pam3CSK4 without exogenously added TLRs (Additional file 1). […] SW620 cells were seeded at 3.75 × 10^4 cells per well of a 48 well plate and transiently transfected 24 hours later using Fugene 6 (Promega) at a ratio of 1 μg DNA: 4 μL Fugene 6. For transfection, expression vectors containing cDNA encoding human (in pFLAG-CMV) or equine (in pcDNA3) TLR2, -1 and -6, and CD14 (in pcDNA3), were mixed as appropriate. TLR cDNA-containing vectors were used at 2.5 ng/well; CD14 cDNA-containing vectors were used at 1.25 ng/well. TLR constructs were replaced with empty vector (pcDNA3), as appropriate, to balance total added DNA amounts. […] Cells were stimulated for six hours, lysed using diluted passive lysis buffer (PLB; Promega), and NF-κB activation measured by the dual luciferase reporter assay (Promega).
(§3) Supplementary file 1297-9716-44-50-S1.pdf: Additional file 1 Expression of TLRs and responses to synthetic ligands of SW620 and HEK293 cells. […] (A) After 25 PCR cycles, TLR4 was detected in SW620, and TLR1 was detected in HEK293. […]

equine TLR2/6 = assay: NF-κB dual luciferase reporter assay in SW620 cells transfected with equine TLR2+TLR6+CD14
Protocol: as §1, §2

human TLR2 [2] = target: T2, human TLR2; assay: NF-κB reporter assay in HEK293 cells transfected with human TLR2 only (+CD14); details: 20 ng/mL ligand, human TLR2 + human CD14, endogenous TLR1/6
Protocol: HEK293 cells were seeded at a density of 3 × 10^4 cells per well of a 96 well plate and transiently transfected 48 h later using JetPEI (Polyplus). For transfection, expression vectors containing cDNA encoding human TLR2, -1 and -6, and CD14, were mixed as appropriate. TLR cDNA-containing and CD14 cDNA-containing vectors were used at 1 ng/well. TLR constructs were replaced as appropriate with empty vector (pcDNA3) to balance the total added DNA amounts. pNF-κB-luc (10 ng/well) and ph-RG-TK (5 ng/well) were added to receptor mixtures, together with 10× TE and 150 mM NaCl to give a total volume of 50 μL per 10 wells. Following mixing of DNA, and per 10 wells, 2 μL JetPEI was added to 48 μL 150 mM NaCl. JetPEI/NaCl was added to the DNA mixtures at a 1:1 ratio and incubated for 30 min at room temperature. Following incubation, transfection mixtures were diluted to 1 mL per 10 wells in complete HEK medium. Old medium was removed from plated cells and replaced with the transfection/complete medium mixtures. […] Cells were stimulated for six hours, lysed using diluted PLB, and NF-κB activation measured by the dual luciferase reporter assay (Promega).
as §3

human TLR2/6 = target: T3, human TLR2/6 (Homo sapiens, UniProt O60603+Q9Y2C9); assay: NF-κB dual luciferase reporter assay in SW620 cells transfected with human TLR2+TLR6+CD14
T3 construct: FLAG (from vector pFLAG-CMV); expressed in transfected cells; host or cells: SW620 (human)
T3 sequence (O60603 21-784): as above
T3 sequence (Q9Y2C9 32-796): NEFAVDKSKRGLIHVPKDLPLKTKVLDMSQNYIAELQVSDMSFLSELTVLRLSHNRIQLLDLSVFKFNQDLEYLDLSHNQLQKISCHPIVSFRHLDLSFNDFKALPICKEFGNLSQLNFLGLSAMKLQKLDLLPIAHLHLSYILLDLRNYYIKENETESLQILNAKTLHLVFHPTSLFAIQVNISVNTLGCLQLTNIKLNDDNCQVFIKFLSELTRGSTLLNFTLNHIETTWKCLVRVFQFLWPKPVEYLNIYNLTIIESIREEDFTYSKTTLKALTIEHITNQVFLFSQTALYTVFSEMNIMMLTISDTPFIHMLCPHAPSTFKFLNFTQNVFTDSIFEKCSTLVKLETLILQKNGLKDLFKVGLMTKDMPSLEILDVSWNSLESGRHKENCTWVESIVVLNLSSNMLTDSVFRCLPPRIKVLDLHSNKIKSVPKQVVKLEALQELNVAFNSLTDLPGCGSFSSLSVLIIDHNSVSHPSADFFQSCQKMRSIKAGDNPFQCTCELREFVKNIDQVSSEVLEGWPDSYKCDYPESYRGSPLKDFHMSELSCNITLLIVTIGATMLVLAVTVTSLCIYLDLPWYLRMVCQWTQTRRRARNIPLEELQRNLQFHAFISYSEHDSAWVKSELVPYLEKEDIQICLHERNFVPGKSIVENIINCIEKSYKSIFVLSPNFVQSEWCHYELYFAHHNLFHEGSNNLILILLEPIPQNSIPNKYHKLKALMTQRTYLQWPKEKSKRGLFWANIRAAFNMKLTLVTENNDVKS
Protocol: as §1, §2

| SMILES | EC50 (human TLR2/1) [nM] | EC50 (equine TLR2/1) [ng/mL] | potency at equine TLR2/1 relative to human TLR2/1 (equine TLR2/1; more potent at equine TLR2/1 than at human TLR2/1) [fold] | NF-κB response of SW620 with exogenous TLR2 only (human TLR2 [1]) | EC50 (equine TLR2/6; equine TLR2+TLR6+CD14, 6 h stimulation, NF-κB luciferase, normalised curves) [ng/mL] | NF-κB response of HEK293 with exogenous TLR2 only (human TLR2 [2]) | EC50 (human TLR2/6; human TLR2+TLR6+CD14, 6 h stimulation, NF-κB luciferase, normalised curves) [nM] | stimulation of equine TLR2/6 (equine TLR2/6; data not shown) | stimulation of human TLR2/6 (human TLR2/6; data not shown) |
| --- | --- | --- | --- | --- | --- | --- | --- | --- | --- |
| CCCCCCCCCCCCCCCC(=O)OCC(CSC[C@H](N)C(=O)N[C@@H](CO)C(=O)N[C@@H](CCCCN)C(=O)N[C@@H](CCCCN)C(=O)N[C@@H](CCCCN)C(=O)N[C@@H](CCCCN)C(=O)O)OC(=O)CCCCCCCCCCCCCCC (stereo partly shown) [Pam2CSK4] (H-C(X1)SKKKK-OH; N-terminus and C-terminus assumed) | 3.31 | 0.43 | 10 | respond weakly | 0.010 | respond to both ligands | 0.0118 | – | – |
| CCCCCCCCCCCCCCCC(=O)N[C@@H](CSCC(COC(=O)CCCCCCCCCCCCCCC)OC(=O)CCCCCCCCCCCCCCC)C(=O)N[C@@H](CO)C(=O)N[C@@H](CCCCN)C(=O)N[C@@H](CCCCN)C(=O)N[C@@H](CCCCN)C(=O)N[C@@H](CCCCN)C(=O)O (stereo partly shown) [Pam3CSK4] (Palmitoyl-C(X1)SKKKK-OH; C-terminus assumed) | 0.311 | 18.73 | – | not | – | respond to both ligands | – | failed to stimulate | failed to stimulate |
